Target: T1, sEH enzyme (Homo sapiens, UniProt P34913)
T1 sequence (P34913 1-555): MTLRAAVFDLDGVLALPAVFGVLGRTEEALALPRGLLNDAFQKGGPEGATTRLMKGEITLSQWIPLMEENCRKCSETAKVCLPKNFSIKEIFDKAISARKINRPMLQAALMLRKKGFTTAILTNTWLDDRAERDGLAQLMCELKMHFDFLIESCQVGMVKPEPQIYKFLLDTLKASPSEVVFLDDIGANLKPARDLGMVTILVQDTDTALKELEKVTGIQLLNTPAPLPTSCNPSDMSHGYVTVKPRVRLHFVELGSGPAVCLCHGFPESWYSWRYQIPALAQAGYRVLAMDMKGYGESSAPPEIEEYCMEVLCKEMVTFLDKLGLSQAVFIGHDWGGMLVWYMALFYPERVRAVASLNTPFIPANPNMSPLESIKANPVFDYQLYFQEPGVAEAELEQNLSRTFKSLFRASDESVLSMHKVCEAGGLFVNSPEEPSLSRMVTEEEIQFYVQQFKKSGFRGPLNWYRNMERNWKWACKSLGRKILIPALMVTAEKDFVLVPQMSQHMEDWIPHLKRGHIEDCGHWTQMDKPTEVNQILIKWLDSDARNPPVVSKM
Assay: sEH enzyme kinetics
Type: biochemical
Details: for Ki: Ki (μM), Dixon plots; for Inhibition type: Lineweaver–Burk plots

| Ki [µM] | Inhibition type | SMILES |
| --- | --- | --- |
| 11.1 | Competitive | O=C(CCCCCCCCc1ccc(O)c(O)c1)c1c(O)cccc1O [Compound 20, malabaricone C] |
| 20.9 | Competitive | O=C(CCCCCCCCc1ccc(O)cc1)c1c(O)cccc1O [Compound 19, malabaricone B] |

Source: article PMC10464555 (Journal of Enzyme Inhibition and Medicinal Chemistry, 2023)
